# Laboratory results as given in US7223856B2, “Antisense compounds which prevent cell death and uses thereof” (The Trustees of Columbia University in the City of New York, priority 1997, dated 2007).
# How the values were obtained:
# [1] = test system: Nedd2; experiment: Western blot of Nedd2 in PC12 cell lysates; format: cell-based, rat
# Source text: The cells were extracted in sample buffer, the extracts boiled and equal amounts of protein resolved by 10% SDS-PAGE and transferred to nitrocellulose. Blots were probed with (FIG. 3A) anti-N-Nedd at 1:500 or (FIG. 3B) anti-C-Nedd at […] and staining visualized with ECL. Bands were quantified using Scion Image® software and normalized against peripherin levels. The level of down-regulation is representative of that obtained in 5 independent experiments.
# PC12 cells grown with or without V-ANedd or V-SNedd were harvested in SDS-containing sample buffer and immediately boiled. Equal amounts of protein were separated by 10% PAGE, transferred to nitrocellulose and immunostained as described (Troy et al., 1992). The affinity purified anti-N-Nedd2 was used at a dilution of 1:500. The commercial antiserum, Nedd2 p12 C20 (Santa Cruz Biotechnology), was used at a dilution of 1:350. Visualization was with ECL using goat-anti-rabbit peroxidase at 1:1000. The relative intensity of the protein bands were quantified using Scion Image 1.55® software and samples were normalized by stripping and reprobing the blots with anti-peripherin antibody.
# [2] = test system: PC12 cells; experiment: Survival of PC12 cells after SOD1 down-regulation by V-ASOD1; format: cell-based, rat
# Procedure: (FIG. 4A) V-ANedd differentially protects PC12 cells from serum deprivation. For serum deprivation (4 left-hand bars) cells were extensively washed as described in Experimental Procedures hereinbelow and the indicated additives (100 ng/ml NGF, 400 nM V-ANedd, or 200 nM V-ICEinh were added at the time of plating in serum-free RPMI1640 medium. For SOD1 down-regulation (4 right-hand bars), PC12 cells were re-plated on fresh collagen-coated 24-well dishes in complete medium (RPMI 1640 medium with 10% horse serum, 5% fetal bovine serum) with 50 nM V-ASOD1 (vector linked antisense oligonucleotide to SOD1). Additives (800 nM V-ANedd, 25 nM V-ICEinh) were included as indicated. Control cells were in complete medium. Cultures were incubated for 24 hours, lysed and number of intact nuclei counted. The numbers of surviving cells are expressed relative to the number in the control cultures (designated as 100). […] Experiments were performed in triplicate wells and data are expressed as means ±SEM.
# (§1) PC12 cells were grown as previously described (Greene and Tischler, 1976) on rat-tail collagen-coated dishes in RPMI 1640 medium containing 5% fetal calf serum and 10% heat-inactivated horse serum (complete medium). […] Numbers of viable cells per culture were determined by quantifying intact nuclei as previously described (Rukenstein et al., 1991). […]
# [3] = test system: neuronally differentiated PC12 cells; experiment: Survival of neuronally differentiated PC12 cells after NGF withdrawal; format: cell-based, rat
# Procedure: (§2) (FIG. 5A) V-ANedd differentially protects neuronally differentiated PC12 cells from apoptosis caused by NGF withdrawal. PC12 cells were neuronally differentiated by exposure to NGF (100 ng/ml) for at least 7 days in RPMI 1640 medium plus 1% horse serum. Cells were deprived of serum and NGF and re-plated as described in FIGS. 4A–C. Additives present at the time of plating included 400 nM V-ANedd, 400 nM V-ICEinh or 100 ng/ml NGF (4 left-hand bars). For SOD1 down-regulation (4 right-hand bars) neuronally differentiated PC12 cells were plated in RPMI 1640 medium plus 1% horse serum, with 100 ng/ml NGF. At the time of plating, cultures were incubated, as indicated, with 50 nM V-ASOD1 and with the indicated additives (800 nM V-ANedd, 50 nM V-ICEinh). Cell survival was determined after one day and expressed as in FIGS. 4A–C.
# (FIG. 5B) Dose-response curve for protection from NGF deprivation by V-ANedd. Neuronally differentiated PC12 cells were washed as above for NGF deprivation and plated in serum-free medium with the indicated concentrations of V-ANedd. Cell survival relative to the number present with the addition of NGF was quantified at one day.
# (FIG. 5C) V-ANedd provides long term protection against NGF deprivation. Neuronally differentiated PC12 cells were deprived of NGF and serum and plated as described in FIG. 5A. V-ANedd (400 nM) was included at the time of NGF deprivation and replenished 1 day later. Cell survival was determined at the indicated times as in FIGS. 4A–C.
# as §1, with “medium). NGF primed (neuronally differentiated) PC12 cells were grown for at least 7 days in RPMI 1640 medium plus 1% horse serum and NGF (100 ng/ml).” for “medium).”
# [4] = test system: neuronally differentiated PC12 cells; experiment: Survival of neuronally differentiated PC12 cells after SOD1 down-regulation; format: cell-based, rat; conditions: 50 nM V-ASOD1
# Procedure: as §2
# as §1, with “medium). NGF primed (neuronally differentiated) PC12 cells were grown for at least 7 days in RPMI 1640 medium plus 1% horse serum and NGF (100 ng/ml).” for “medium).”
# [5] = test system: sympathetic neurons; experiment: Survival of sympathetic neurons after NGF deprivation; format: cell-based, rat; conditions: for survival: single addition at time of NGF withdrawal
# Procedure: (FIG. 6A) V-ANedd protects sympathetic neurons from NGF-withdrawal. At the time of NGF deprivation, V-ANedd (400 nM) was added to the cultures as indicated. Numbers of surviving neurons were determined at the indicated times as described in Experimental Procedures hereinbelow and are reported as relative to the number present in each culture at the time of NGF withdrawal.
# (§3) Sympathetic neuron cultures were prepared from 2 day old rat pups, as previously described (Ferrari et al., 1995). Cultures were grown in 24-well collagen coated dishes in RPMI 1640 medium plus 10% horse serum with mouse NGF (100 ng/ml). One day following plating, uridine and 5-fluorodeoxyuridine (10 μM each) were added to the cultures and left for three days to eliminate non-neuronal cells. On the sixth day following plating NGF was removed by washing the cultures three times with RPMI 1640 medium plus 10% horse serum, followed by the addition of medium containing anti-mouse NGF (1:200, Sigma, St. Louis, Mo.) with or without V-ANedd. Each culture was scored, as previously described (Rydel and Greene, 1988), as numbers of living, phase-bright neurons at various times. Three replicate cultures were assessed for each condition and data are normalized to numbers of neurons present in each culture at the time of NGF withdrawal and reported as mean ±SEM.
# [6] = test system: CPP-32; experiment: Western blot of the same samples probed with anti-CPP32; format: cell-based, rat; conditions: blots of the same samples probed with anti-CPP32
# [7] = test system: IL-1β; experiment: IL-1β release from PC12 cells by ELISA; format: cell-based, rat; conditions: 50 nM V-ASOD1, 800 nM V-ANedd, 20 hours
# Procedure: PC12 cells were plated with the indicated additives (50 nM V-ASOD1, 25 nM V-ICEinh, 800 nM V-ANedd). Controls contained complete medium. After 20 hours, media were removed and IL-1β was measured by ELISA using the Intertest-1βX® kit. Data are expressed as means ±SEM (n=3).
# IL-1β was quantified by ELISA using the Intertest-1βX® kit (Genzyme, Cambridge, Mass.) as previously described (Troy et al., 1996b). PC12 cells were grown as described above, on 24-well plates, in 500 μl of medium. After one day incubation, medium was removed and IL-1β measured following the manufacturer's instructions, and number of viable cells in each well quantified.
# [8] = test system: Nedd2; experiment: Nedd2 immunofluorescence staining of PC12 cells with anti-N-Nedd2; format: cell-based, rat; conditions: 400 nM, 24 hours, naive and neuronal PC12 cells
# Procedure: Naive and neuronally differentiated PC12 cells (pretreated for at least 7 days with NGF, nerve growth factor) were plated on Matrigel coated multichamber slides. V-ANedd (400 nM) was added to the indicated cultures after plating. Naive cultures were grown in RPMI 1640 medium with 5% FCS and 10% horse serum; neuronal cultures were grown in RPMI 1640 medium with 1% horse serum and NGF (100 ng/ml). After overnight maintenance, cells were fixed in ice cold methanol and then immunostained with anti-N-Nedd.
# PC12 cells were plated on coverslips or on 8 well multichamber slides (LabTek, VWR), coated with Matrigel®. After growth overnight, cells were fixed in ice cold methanol and then immunostained as described (Troy et al., 1990). The primary antibody was either affinity purified antibody Anti-N-Nedd2 or Nedd2 p12 C20 (Santa Cruz Biotechnology) at a dilution of 1:200. The secondary antibody was fluoroscein isothiocyanate-conjugated goat anti-rabbit (Cappel, Durham, N.C.) at 1:100. For visualization with a Nikon® fluorescence microscope slides were coverslipped with Aqua-mount®. Confocal microscopy was done on a BioRad® 600 confocal microscope.
# [9] = test system: naive PC12 cells; experiment: Survival of naive PC12 cells after serum deprivation (intact nuclei count); format: cell-based, rat; conditions: for protection from death caused by serum deprivation: additive at time of plating in serum-free medium, 24 hours
# [10] = test system: sympathetic neurons; experiment: Sympathetic neuron death by SOD1 down-regulation and nitric oxide generation (V-ASOD1 + SNAP); format: cell-based, rat; conditions: V-ASOD1 50 nM, SNAP 100 μM, with NGF
# Procedure: Sympathetic neurons, after 6 days in culture, were maintained with NGF (100 ng/ml) and mixtures of the following additives as indicated: V-ASOD1 (50 nM), SNAP (100 μM) and V-ANedd (400 nM). Numbers of surviving neurons were determined at the indicated times as above.
# as §3
# [11] = test system: PC12 cells; conditions: PC12 cells and sympathetic neurons, Troy et al., 1996b; cited from earlier work
# [12] = test system: naive PC12 cells; conditions: PC12 cells and sympathetic neurons, Troy et al., 1996b; cited from earlier work
# [13] = test system: Jurkat cells; experiment: Anti-Fas mediated death of Jurkat cells; format: cell-based, human; conditions: dose-dependent, FIG. 8
# Source text: FIG. 8. […] V-ICH is an antisense oligonucleotide having an antisense sequence of human Ich, specifically V-AICH has the sequence of Seq ID No. 2.
# • 1. […] Beta-amyloid peptide mediates apoptosis in PC12 cells. This apoptosis can be abrogated by down-regulation of Nedd2. Clinical Relevance of Antisense Oligonucleotides.
substance,measurement,setting,value
"V-ANedd: Penetratin1-linked antisense oligonucleotide to Nedd2, GCTCGGCGCCGCCATTTCCAG (SEQ ID NO:1) (Penetratin1 peptide conjugated, oligonucleotide chemistry not given here)",down-regulation of major band and minor Nedd2 bands,"[1]; 18–22 hours treatment, n=4",60–70%
same,down-regulation of Nedd2 in the presence of V-ASOD1,[1]; in the presence of V-ASOD1,did down-regulate Nedd2
same,protection from SOD1 down-regulation,"[2]; naive PC12 cells, 50 nM V-ASOD1, V-ANedd up to 800 nM",no protection from SOD1 down-regulation
same,protection from SOD1 down-regulation after pretreatment,[2]; pretreatment with V-ANedd,without effect
same,NGF-like flattening of naive PC12 cells or neurite outgrowth from neuronally-differentiated cells,"[3]; morphology, 400 nM, 24 hr",did not mimic the actions of NGF
same,protection from apoptosis caused by NGF withdrawal,"[3]; neuronally differentiated PC12 cells, one day",protected neuronally differentiated PC12 cells from apoptosis caused by NGF withdrawal
same,survival of cells,"[3]; two successive additions (at NGF deprivation and one day later), through 4 days",greater than 75%
same,protection from down-regulation of SOD1,[4],not from down-regulation of SOD1
same,maintenance of neurites of NGF-deprived neurons,"[5]; 400 nM, NGF-free medium with anti-NGF",did not maintain the neurites
same,survival,[5]; after 4 days,over 60%
same,survival,[5]; at 8 days,25%
same,down-regulation of CPP-32,[6],no down-regulation of CPP-32
same,IL-1β release after exposure to ASOD1,[7],did not affect IL-1β release
same,anti-N-Nedd2 staining (immunohistochemistry),[8],decreased to almost undetectable levels
same,concentration of maximal protection,[9]; added at the same time as serum withdrawal,400 nM
same,protection from death caused by serum deprivation,[9],protects naive PC12 cells from death caused by serum deprivation
same,concentration of maximal survival after pretreatment,[9]; pretreatment for 4 hours with 50 nM V-ANedd,100 nM
same,effect on sympathetic neuron death evoked by V-ASOD1+SNAP,[10],without effect
NGF: nerve growth factor,protection from death caused by serum deprivation,[9],promotes survival of all cells initially plated
IL-1Ra: IL-1 receptor antagonist,apoptosis following SOD1 down-regulation (literature),[11],suppressed
same,death caused by trophic factor/NGF withdrawal (literature),[12],little or no effect
"V-SNedd: control scrambled oligonucleotide CCGTAGCGTAGCTCCGCCTGC (SEQ ID NO:5) linked to vector peptide Penetratin 1 (linked to vector peptide Penetratin 1, further chemistry not given here) [reference compound]",down-regulation of Nedd2 bands (in words),"[1]; control oligonucleotide, Western blot",did not down-regulate any of the bands
same,anti-N-Nedd2 staining (immunohistochemistry),[8],no change in staining
same,protection from death caused by serum deprivation,[9],no effect on survival or death
"V-AICH: antisense oligonucleotide having an antisense sequence of human Ich, Seq ID No. 2 (GTCAGCGGCCATCAGCTT) (linked to vector peptide (Penetratin1), oligo chemistry not given here)",protection from anti-Fas mediated death,[13],protect from anti-Fas mediated death in a dose-dependent manner
